Reference: patent publication US5110976A, “Insecticidal composition comprising more than one active ingredient” (priority 1985, dated 1992)

Tests used:
[1] = tested on: Tribolium confusum; experiment: Contact test, mixtures of Ia and Ib of various ratio (Table 13); format: in vivo, flour beetle (Tribolium confusum)
Procedure: (§1) The active ingredient is dissolved in a 1:2 mixture of oil and acetone; filter paper discs (Whatman No. 1, diameter 9 cm) are impregnated with the solutions of the corresponding stereoisomers and enantiomer-pairs, respectively. The acetone is allowed to evaporate, whereupon the insects are exposed to filter papers discs placed in Petri-dishes. Three parallels are used on each dose and 15 insects are placed into each Petri-dish. The percental mortality is determined after 24 hours. The corrected percent mortality is calculated by means of the Abbot Formula.
In Table 13 the insecticidal effect of mixtures of enantiomer-pairs Ia and Ib of various ratio is shown on flour beetle (Tribolium confusum). The test method is that disclosed in Example 43.

[2] = tested on: Musca domestica; experiment: Filter paper disc contact test (Table 11); format: in vivo, house fly (Musca domestica); conditions: Musca domestica, 24 h
Procedure: In Table 1 the activity of various stereoisomers of cypermethrin on the house fly (Musca domestica) is shown.
as §1

[3] = tested on: T. confusum; experiment: Activity as function of time, toxic symptoms (Table 16); format: in vivo, flour beetle (T. confusum), imagos
Procedure: as §1
Activity of cypermethrin stereoisomer-pairs as function of time on flour beetle (T. Confusum).
Flour beetle (T. confusum) imagos are exposed in Petri-dishes according to the method described in Example 43. For each dose 3 parallels are used and 15 animals are applied for each parallel test. In each point of time the insects lying on their backs are counted and the percental results are expressed in Table 16.

[4] = tested on: Tribolium confusum; experiment: Contact test on Tribolium confusum (Table 12); format: in vivo; conditions: Tribolium confusum, 24 h; for mortality at 330 µg/disc: 0.33 mg/disc; for mortality at 1000 µg/disc: 1.00 mg/disc; for mortality at 3000 µg/disc: 3.00 mg/disc; for mortality at 110 µg/disc: 0.11 mg/disc
Procedure: as §1
It appears from Table 12 that the increased activity shown in Example 41 is due to the synergistic effect of the trans-isomers to Tribolium confusum.

[5] = tested on: T. confusum; experiment: Topical LD50 (Table 3); format: in vivo, 1-2 weeks' old imagos; conditions: topical, abdominal side
Procedure: (§2) In Table 3 the LD50 values of the Ig and Ii isomers and those of the Ib isomer-pair are disclosed. The data are topically measured.
(§3) The active ingredients are dissolved in 2-ethoxyethanol (cellosolve) and 0.3 μl droplets of the solutions are applied onto the dorsal cuticulum of 3-5 days' old female house flies. 10 animals are used and 2 parallels are carried out for each dose. The tests are carried out for 5 dose levels between activity limits of 0% and 100%. After treatment the flies are placed into glass vials. Mortality is determined after 24 hours. Data are transformed to log10 dosage and probit mortality. LD50 and confidence interval values are calculated by linear regression analysis of the log-probit data. The expected values required for the calculation of synergism are obtained by means of harmonic average. The synergistic factor is the quotient of the expected and measured values.
The active ingredients are dissolved in 2-ethoxyethanol and 0.3 μl droplets of the solutions are applied onto the abdominal side of 1-2 weeks' old imagos. Treatment is carried out with 2 parallels and 20 animals for each dose by using 5 dose levels in the range between activity limits of 0% and 100%. Evaluation and determination of LD50 values and synergistic factors are carried out as described in Example 21.

[6] = tested on: T. confusum; experiment: Contact method, synergism between stereoisomers (Table 2); format: in vivo; conditions: Tribolium confusum, 24 h
Procedure: The stereoisomers are dissolved in a 1:2 mixture of mineral oil and acetone and filter paper discs (Whatman No. 1., diameter 9 cm) are impregnated with the corresponding dosage of the solution of the active ingredient. The acetone is allowed to evaporate and the insects are examined on filter paper discs placed into Petri-dishes. Three parallels are used for each dose and 15 animals are placed in each Petri-dish. Mortality rate is determined after 24 hours. The corrected mortality % data are calculated by means of the Abbot formula.
The test is carried out on T. confusum and the following results are obtained by the contact method for various active ingredient doses.
The test is carried out according to the method described in Example 20.

[7] = tested on: Musca domestica; experiment: Topical LD50 (Table 3); format: in vivo, house fly (Musca domestica), 3-5 days' old females; conditions: topical, dorsal cuticulum; 24 hours
Procedure: as §2, §3

[8] = tested on: Colorado potato beetle; experiment: Topical test on Colorado potato beetle (Table 14); format: in vivo, Colorado potato beetle (Leptinotersa decemlineata), imago
Procedure: In Table 14 the activity on Colorado potato beetle is shown.
The test materials are dissolved in 2-ethoxyethanol (Cellosolve). One 0.3 μl drop of the solution is applied to the abdominal sterna of the imago. The treatment is carried out by using 2 parallels and 10 insects for each dose. […]

`CC1(C)C(C=C(Cl)Cl)C1C(=O)OC(C#N)c1cccc(Oc2ccccc2)c1` (stereo not shown) [5:5] was tested. Which “24 hours' mortality %” value ([1]; 0.02 mg/disc, 1440 min) did it give?
Its value is 0%.

What about the “24 hours' mortality %” value ([1]; 0.06 mg/disc, 1440 min) of the same compound?
The value was 43%.

What about the mortality at 250 µg/disc ([1]; Tribolium confusum, 24 h, 0.25 mg/disc) of the same compound?
The mortality at 250 µg/disc was 100%.

What about the mortality at 1000 µg/disc ([1]; Tribolium confusum, 24 h, 1.00 mg/disc) of the same compound?
Its mortality at 1000 µg/disc is 100%.

`CC1(C)[C@H](C(=O)O[C@H](C#N)c2cccc(Oc3ccccc3)c2)[C@@H]1C=C(Cl)Cl` [If] was tested. Which mortality at 40 µg/disc ([2]; 0.04 mg/disc) did it give?
Its mortality at 40 µg/disc is 68%.

And the mortality at 110 µg/disc ([2]; 0.11 mg/disc)?
Its mortality at 110 µg/disc is 93%.

What about the mortality at 330 µg/disc ([2]; 0.33 mg/disc) of the same compound?
The mortality at 330 µg/disc was 100%.

What about the mortality at 1000 µg/disc ([2]; 1.00 mg/disc) of the same compound?
Its mortality at 1000 µg/disc is 100%.

And the mortality at 3000 µg/disc ([2]; 3.00 mg/disc)?
The mortality at 3000 µg/disc was 100%.

What about the “% of insects showing toxic symptoms” value ([3]; 30 minutes) of the same compound?
Its value is 0%.

What about the “% of insects showing toxic symptoms” value ([3]; 30 minutes, 0.33 mg/disc) of the same compound?
Its value is 0%.

What about the “% of insects showing toxic symptoms” value ([3]; 30 minutes, 1.00 mg/disc) of the same compound?
Its value is 48%.

And the “% of insects showing toxic symptoms” value ([3]; 30 minutes, 3.00 mg/disc)?
Its value is 64%.

What about the “% of insects showing toxic symptoms” value ([3]; 60 minutes) of the same compound?
The value was 0%.

And the “% of insects showing toxic symptoms” value ([3]; 60 minutes, 0.33 mg/disc)?
The value was 5%.

What about the “% of insects showing toxic symptoms” value ([3]; 60 minutes, 1.00 mg/disc) of the same compound?
The value was 84%.

What about the “% of insects showing toxic symptoms” value ([3]; 60 minutes, 3.00 mg/disc) of the same compound?
The value was 100%.

What about the “% of insects showing toxic symptoms” value ([3]; 120 minutes) of the same compound?
The value was 0%.

What about the “% of insects showing toxic symptoms” value ([3]; 120 minutes, 0.33 mg/disc) of the same compound?
Its value is 40%.

What about the “% of insects showing toxic symptoms” value ([3]; 120 minutes, 1.00 mg/disc) of the same compound?
Its value is 100%.

And the “% of insects showing toxic symptoms” value ([3]; 120 minutes, 3.00 mg/disc)?
Its value is 100%.

And the “% of insects showing toxic symptoms” value ([3]; 180 minutes)?
The value was 39%.

And the “% of insects showing toxic symptoms” value ([3]; 180 minutes, 0.33 mg/disc)?
The value was 61%.

And the “% of insects showing toxic symptoms” value ([3]; 180 minutes, 1.00 mg/disc)?
The value was 100%.

What about the “% of insects showing toxic symptoms” value ([3]; 180 minutes, 3.00 mg/disc) of the same compound?
The value was 100%.

What about the mortality at 330 µg/disc [4] of the same compound?
The mortality at 330 µg/disc was 100%.

What about the mortality at 1000 µg/disc [4] of the same compound?
Its mortality at 1000 µg/disc is 100%.

What about the mortality at 3000 µg/disc [4] of the same compound?
The mortality at 3000 µg/disc was 100%.

How did the LD50 measured [5] turn out when `CC1(C)[C@@H](C=C(Cl)Cl)[C@@H]1C(=O)O[C@@H](C#N)c1cccc(Oc2ccccc2)c1` [Ii] was run?
The LD50 measured was 1291.8 ng/insect.

What about the “% of insects showing toxic symptoms” value ([3]; 30 minutes) of the same compound?
The value was 0%.

What about the “% of insects showing toxic symptoms” value ([3]; 30 minutes, 0.33 mg/disc) of the same compound?
The value was 0%.

What about the “% of insects showing toxic symptoms” value ([3]; 30 minutes, 1.00 mg/disc) of the same compound?
The value was 0%.

What about the “% of insects showing toxic symptoms” value ([3]; 30 minutes, 3.00 mg/disc) of the same compound?
The value was 15%.

What about the “% of insects showing toxic symptoms” value ([3]; 60 minutes) of the same compound?
The value was 0%.

What about the “% of insects showing toxic symptoms” value ([3]; 60 minutes, 0.33 mg/disc) of the same compound?
The value was 0%.

What about the “% of insects showing toxic symptoms” value ([3]; 60 minutes, 1.00 mg/disc) of the same compound?
Its value is 0%.

And the “% of insects showing toxic symptoms” value ([3]; 60 minutes, 3.00 mg/disc)?
Its value is 70%.

And the “% of insects showing toxic symptoms” value ([3]; 120 minutes)?
The value was 0%.

What about the “% of insects showing toxic symptoms” value ([3]; 120 minutes, 0.33 mg/disc) of the same compound?
The value was 0%.

What about the “% of insects showing toxic symptoms” value ([3]; 120 minutes, 1.00 mg/disc) of the same compound?
Its value is 0%.

And the “% of insects showing toxic symptoms” value ([3]; 120 minutes, 3.00 mg/disc)?
Its value is 100%.

And the “% of insects showing toxic symptoms” value ([3]; 180 minutes)?
Its value is 0%.

And the “% of insects showing toxic symptoms” value ([3]; 180 minutes, 0.33 mg/disc)?
Its value is 0%.

And the “% of insects showing toxic symptoms” value ([3]; 180 minutes, 1.00 mg/disc)?
Its value is 0%.

What about the “% of insects showing toxic symptoms” value ([3]; 180 minutes, 3.00 mg/disc) of the same compound?
Its value is 100%.

And the mortality at 110 µg/disc ([6]; 0.11 mg/disc)?
The mortality at 110 µg/disc was 0%.

What about the mortality at 330 µg/disc ([6]; 0.33 mg/disc) of the same compound?
The mortality at 330 µg/disc was 0%.

And the mortality at 1000 µg/disc ([6]; 1.00 mg/disc)?
Its mortality at 1000 µg/disc is 71%.

What about the mortality at 3000 µg/disc ([6]; 3.00 mg/disc) of the same compound?
Its mortality at 3000 µg/disc is 90%.

And the LD50 measured [7]?
The LD50 measured was 141.9 ng/insect.

What about the mortality at 110 µg/disc [4] of the same compound?
The mortality at 110 µg/disc was 0%.

And the mortality at 330 µg/disc [4]?
The mortality at 330 µg/disc was 0%.

And the mortality at 1000 µg/disc [4]?
The mortality at 1000 µg/disc was 71%.

And the mortality at 3000 µg/disc [4]?
Its mortality at 3000 µg/disc is 90%.

For `CC1(C)[C@H](C=C(Cl)Cl)[C@@H]1C(=O)O[C@@H](C#N)c1cccc(Oc2ccccc2)c1` [Ih], which “% of insects showing toxic symptoms” value ([3]; 30 minutes) is on record?
The value was 0%.

What about the “% of insects showing toxic symptoms” value ([3]; 30 minutes, 0.33 mg/disc) of the same compound?
Its value is 0%.

And the “% of insects showing toxic symptoms” value ([3]; 30 minutes, 1.00 mg/disc)?
The value was 0%.

And the “% of insects showing toxic symptoms” value ([3]; 30 minutes, 3.00 mg/disc)?
Its value is 0%.

And the “% of insects showing toxic symptoms” value ([3]; 60 minutes)?
The value was 0%.

And the “% of insects showing toxic symptoms” value ([3]; 60 minutes, 0.33 mg/disc)?
The value was 0%.

What about the “% of insects showing toxic symptoms” value ([3]; 60 minutes, 1.00 mg/disc) of the same compound?
Its value is 0%.

And the “% of insects showing toxic symptoms” value ([3]; 60 minutes, 3.00 mg/disc)?
Its value is 8%.

What about the “% of insects showing toxic symptoms” value ([3]; 120 minutes) of the same compound?
The value was 0%.

And the “% of insects showing toxic symptoms” value ([3]; 120 minutes, 0.33 mg/disc)?
The value was 0%.

And the “% of insects showing toxic symptoms” value ([3]; 120 minutes, 1.00 mg/disc)?
Its value is 0%.

And the “% of insects showing toxic symptoms” value ([3]; 120 minutes, 3.00 mg/disc)?
The value was 67%.

What about the “% of insects showing toxic symptoms” value ([3]; 180 minutes) of the same compound?
Its value is 0%.

What about the “% of insects showing toxic symptoms” value ([3]; 180 minutes, 0.33 mg/disc) of the same compound?
Its value is 0%.

And the “% of insects showing toxic symptoms” value ([3]; 180 minutes, 1.00 mg/disc)?
Its value is 0%.

What about the “% of insects showing toxic symptoms” value ([3]; 180 minutes, 3.00 mg/disc) of the same compound?
The value was 88%.

And the mortality at 110 µg/disc [4]?
Its mortality at 110 µg/disc is 0%.

And the mortality at 330 µg/disc [4]?
Its mortality at 330 µg/disc is 38%.

What about the mortality at 1000 µg/disc [4] of the same compound?
Its mortality at 1000 µg/disc is 80%.

What about the mortality at 3000 µg/disc [4] of the same compound?
The mortality at 3000 µg/disc was 100%.

What does the source list for `CC1(C)C(C=C(Cl)Cl)C1C(=O)OC(C#N)c1cccc(Oc2ccccc2)c1` (stereo not shown) [Ia:Ib = 3:7]?
24 hours' mortality % ([8]; 0.05 μg/beetle): 45%; 24 hours' mortality % ([8]; 0.10 μg/beetle): 65%; 24 hours' mortality % ([8]; 0.20 μg/beetle): 75%; 24 hours' mortality % ([8]; 0.40 μg/beetle): 85%; 24 hours' mortality % ([1]; 0.02 mg/disc, 1440 min): 20%; 24 hours' mortality % ([1]; 0.06 mg/disc, 1440 min): 81%; 24 hours' mortality % ([1]; 0.25 mg/disc): 100%; 24 hours' mortality % ([1]; 1.00 mg/disc): 100%
